In US4476120A, “Thiolic derivatives of erythromycin having therapeutic activity, and pharmaceutical compositions containing them” (Sigma Tau Indistrie Farmaceutiche Riunites, p.A, priority 1982, dated 1984):
In brackets after ≈: the same amount, converted by molar mass.

Key:
[1] = C.A. 93 38279f; cited from earlier work
Staph. albus SS 03 = assay type: cell-based; conditions: Brain Heart Infusion, estolate and RV11-RV15 previously hydrolized, unit assumed
Staph. albus SS 04 = assay type: cell-based; conditions: Brain Heart Infusion, estolate and RV11-RV15 previously hydrolized, unit assumed
Staph. aureus SS 08 = assay type: cell-based; conditions: Brain Heart Infusion, estolate and RV11-RV15 previously hydrolized, unit assumed
Staph. aureus SS 09 = assay type: cell-based; conditions: Brain Heart Infusion, estolate and RV11-RV15 previously hydrolized, unit assumed
[2] = system: Strept. haemolyticus SS 17; assay type: cell-based; conditions: Brain Heart Infusion, estolate and RV11-RV15 previously hydrolized, unit assumed
[3] = system: Strept. haemolyticus SS 18; assay type: cell-based; conditions: Brain Heart Infusion, estolate and RV11-RV15 previously hydrolized, unit assumed
Strept. faecalis SS 19 = assay type: cell-based; conditions: Brain Heart Infusion, estolate and RV11-RV15 previously hydrolized, unit assumed
S. lutea ATCC 9341 = assay type: cell-based; conditions: Brain Heart Infusion, estolate and RV11-RV15 previously hydrolized, unit assumed
B. subtilis ATCC 6633 = assay type: cell-based; conditions: Brain Heart Infusion, estolate and RV11-RV15 previously hydrolized, unit assumed
B. subtilis SS 127 = assay type: cell-based; conditions: Brain Heart Infusion, estolate and RV11-RV15 previously hydrolized, unit assumed
B. cereus ATCC 11778 = assay type: cell-based; conditions: Brain Heart Infusion, estolate and RV11-RV15 previously hydrolized, unit assumed
B. anthranis SS 08 = assay type: cell-based; conditions: Brain Heart Infusion, estolate and RV11-RV15 previously hydrolized, unit assumed
Br. melitensis SS 19 = assay type: cell-based; conditions: unit assumed
Br. abortus SS 7 = assay type: cell-based; conditions: Brain Heart Infusion, estolate and RV11-RV15 previously hydrolized, unit assumed
Citrobacter SS 05 = assay type: cell-based; conditions: Brain Heart Infusion, estolate and RV11-RV15 previously hydrolized, unit assumed
Citrobacter SS 09 = assay type: cell-based; conditions: Brain Heart Infusion, estolate and RV11-RV15 previously hydrolized, unit assumed
S. infantis SS 08 = assay type: cell-based; conditions: Brain Heart Infusion, estolate and RV11-RV15 previously hydrolized, unit assumed
S. heidelberg SS 18 = assay type: cell-based; conditions: Brain Heart Infusion, estolate and RV11-RV15 previously hydrolized, unit assumed
E. cloacae SS 07 = assay type: cell-based; conditions: Brain Heart Infusion, estolate and RV11-RV15 previously hydrolized, unit assumed
E. aerogenes SS 011 = assay type: cell-based; conditions: Brain Heart Infusion, estolate and RV11-RV15 previously hydrolized, unit assumed
Ps. aeruginosa SS 10 = assay type: cell-based; conditions: Brain Heart Infusion, estolate and RV11-RV15 previously hydrolized, unit assumed
E. coli SS 04 = assay type: cell-based; conditions: Brain Heart Infusion, estolate and RV11-RV15 previously hydrolized, unit assumed
E. coli SS 05 = assay type: cell-based; conditions: Brain Heart Infusion, estolate and RV11-RV15 previously hydrolized, unit assumed
E. coli SS 06 = assay type: cell-based; conditions: Brain Heart Infusion, estolate and RV11-RV15 previously hydrolized, unit assumed
E. coli SS 07 = assay type: cell-based; conditions: Brain Heart Infusion, estolate and RV11-RV15 previously hydrolized, unit assumed
Pr. mirabilis SS 09 = assay type: cell-based; conditions: Brain Heart Infusion, estolate and RV11-RV15 previously hydrolized, unit assumed
Pr. vulgaris SS 10 = assay type: cell-based; conditions: Brain Heart Infusion, estolate and RV11-RV15 previously hydrolized, unit assumed
Kl. aerogenes SS 71 = assay type: cell-based; conditions: Brain Heart Infusion, estolate and RV11-RV15 previously hydrolized, unit assumed
H. tubercolosis SS 03 = assay type: cell-based; conditions: Brain Heart Infusion, estolate and RV11-RV15 previously hydrolized, unit assumed
From the text: (§1) In the following table I the MIC/ml values are indicated corresponding to the lowest concentration capable of inducing a complete inhibition of the bacterial development.

Kl. pneumoniae SS 04 = assay type: cell-based; conditions: Brain Heart Infusion, estolate and RV11-RV15 previously hydrolized, unit assumed
From the text: as §1

Sr. marcescens SS 03 = assay type: cell-based; conditions: Brain Heart Infusion, estolate and RV11-RV15 previously hydrolized, unit assumed
C. diphtheriae SS 19 = assay type: cell-based; conditions: Brain Heart Infusion, estolate and RV11-RV15 previously hydrolized, unit assumed
D. pneumoniae SS 23 [4] = assay type: cell-based; conditions: Brain Heart Infusion, estolate and RV11-RV15 previously hydrolized, unit assumed
N. gonorreae SS 27 = assay type: cell-based; conditions: Brain Heart Infusion, estolate and RV11-RV15 previously hydrolized, unit assumed
N. meningitidis SS 04 = assay type: cell-based; conditions: Brain Heart Infusion, estolate and RV11-RV15 previously hydrolized, unit assumed
H. influentiae SS 02 = assay type: cell-based; conditions: Brain Heart Infusion, estolate and RV11-RV15 previously hydrolized, unit assumed
H. pertussis SS 03 = assay type: cell-based; conditions: Brain Heart Infusion, estolate and RV11-RV15 previously hydrolized, unit assumed
C. albicans SS 04 = assay type: cell-based; conditions: Brain Heart Infusion, estolate and RV11-RV15 previously hydrolized, unit assumed
Cl. tetani SS 17 = assay type: cell-based; conditions: Brain Heart Infusion, estolate and RV11-RV15 previously hydrolized, unit assumed
B. anthranis SS 09 = assay type: cell-based; conditions: B. anthranis SS 09 (14 bis); Brain Heart Infusion; estolate and RV11-RV15 previously hydrolized; unit assumed
Staph. aureus SS 07 = test: Experimental infection induced by Staph. aureus SS 07; assay type: in vivo, Swiss white mice; conditions: Staphylococcus aureus, SS07, in Mus musculus, po, 168 h, os; Staph. aureus SS 07; mg/kg of erythromycin; survival after 7 days; read-out: ED50 (reliability limits)
Method: (§2) Swiss white mice of 20 g body weight were used, infected by parenteral administration of lethal amounts of pathogenic […] of Staph. aureus SS 07 and D. pneumoniae SS 23.
(§3) The antibiotics were administered at the time of injecting the infecting germ and 6 and 24 hours later. On the basis of the survival after 7 days, the ED50 values were determined, as reported in the following table II and III, wherein the reliability limits are indicated in brackets.

D. pneumoniae SS 23 [5] = test: Experimental infection induced by D. pneumoniae SS 23; assay type: in vivo, Swiss white mice; conditions: Streptococcus pneumoniae, SS23, in Mus musculus, po, 168 h, os; D. pneumoniae SS 23; mg/kg of erythromycin; survival after 7 days; read-out: ED50 (reliability limits)
Method: as §2, §3

[6] = Hematic levels in the healthy volunteer; assay type: in vivo, healthy volunteers; conditions: 500 mg of erythromycin, average; for Hematic levels in the healthy volunteer: oral
From the text: For the dosing, the microbiological method using a B. subtilis strain was adopted.

[7] = Mucolytic activity: obstruction of the bronchial tract after SO2 inhalation; assay type: in vivo, Sprague Dawley male rats; conditions: oral, 500 mg/kg; SO2, 15 days
[8] = Histological examination of bronchi after SO2 inhalation; assay type: in vivo, Sprague Dawley male rats; conditions: oral, 500 mg/kg
[9] = in vivo, po, 100 mg/kg, 6 h
in vivo = conditions: rat, po, 100 mg/kg, Hematic levels in the rat

CC(=O)N[C@@H](CS)C(=O)O [acetylcysteine]
action with respect to the activity of antibiotics [1]: inhibiting action with respect to the activity of antibiotics

CCC(=O)O[C@H]1[C@H](O[C@@H]2[C@@H](C)[C@H](O[C@H]3C[C@@](C)(OC)[C@@H](O)[C@H](C)O3)[C@@H](C)C(=O)O[C@H](CC)[C@@](C)(O)[C@H](O)[C@@H](C)C(=O)[C@H](C)C[C@@]2(C)O)O[C@H](C)C[C@@H]1N(C)C [erythromycin estolate, reference compound]
MIC (Staph. albus SS 03): 0.05 µg/mL (≈ 0.0633 µM) | MIC (Staph. albus SS 04): 0.05 µg/mL (≈ 0.0633 µM) | MIC (Staph. aureus SS 08): 0.025 µg/mL (≈ 0.0316 µM) | MIC (Staph. aureus SS 09): 0.05 µg/mL (≈ 0.0633 µM) | MIC [2]: 3 µg/mL (≈ 3.8 µM) | MIC [3]: 3 µg/mL (≈ 3.8 µM) | MIC (Strept. faecalis SS 19): 0.1 µg/mL (≈ 0.127 µM) | MIC (S. lutea ATCC 9341): 0.01 µg/mL (≈ 0.0127 µM) | MIC (B. subtilis ATCC 6633): 0.01 µg/mL (≈ 0.0127 µM) | MIC (B. subtilis SS 127): 0.025 µg/mL (≈ 0.0316 µM) | MIC (B. cereus ATCC 11778): 0.8 µg/mL (≈ 1.01 µM) | MIC (B. anthranis SS 08): 0.4 µg/mL (≈ 0.506 µM) | MIC (Br. melitensis SS 19): 3 µg/mL (≈ 3.8 µM) | MIC (Br. abortus SS 7): 6 µg/mL (≈ 7.59 µM) | MIC (Citrobacter SS 05): > 200 µg/mL | MIC (Citrobacter SS 09): > 200 µg/mL | MIC (S. infantis SS 08): 100 µg/mL (≈ 127 µM) | MIC (S. heidelberg SS 18): 100 µg/mL (≈ 127 µM) | MIC (E. cloacae SS 07): > 200 µg/mL | MIC (E. aerogenes SS 011): 50 µg/mL (≈ 63.3 µM) | MIC (Ps. aeruginosa SS 10): 100 µg/mL (≈ 127 µM) | MIC (E. coli SS 04): 100 µg/mL (≈ 127 µM) | MIC (E. coli SS 05): 100 µg/mL (≈ 127 µM) | MIC (E. coli SS 06): 50 µg/mL (≈ 63.3 µM) | MIC (E. coli SS 07): 50 µg/mL (≈ 63.3 µM) | MIC (Pr. mirabilis SS 09): > 200 µg/mL | MIC (Pr. vulgaris SS 10): > 200 µg/mL | MIC (Kl. aerogenes SS 71): 100 µg/mL (≈ 127 µM) | MIC (H. tubercolosis SS 03): 50 µg/mL (≈ 63.3 µM) | MIC (Kl. pneumoniae SS 04): 100 µg/mL (≈ 127 µM) | MIC (Sr. marcescens SS 03): > 200 µg/mL | MIC (C. diphtheriae SS 19): 0.025 µg/mL (≈ 0.0316 µM) | MIC (D. pneumoniae SS 23 [4]): 0.05 µg/mL (≈ 0.0633 µM) | MIC (N. gonorreae SS 27): 0.8 µg/mL (≈ 1.01 µM) | MIC (N. meningitidis SS 04): 1.5 µg/mL (≈ 1.9 µM) | MIC (H. influentiae SS 02): 1.5 µg/mL (≈ 1.9 µM) | MIC (H. pertussis SS 03): 0.4 µg/mL (≈ 0.506 µM) | MIC (C. albicans SS 04): 200 µg/mL (≈ 253 µM) | MIC (Cl. tetani SS 17): 0.2 µg/mL (≈ 0.253 µM) | MIC (B. anthranis SS 09): 0.4 µg/mL (≈ 0.506 µM) | ED50 (Staph. aureus SS 07): 2.2 mg/kg | ED50 (D. pneumoniae SS 23 [5]): 128 mg/kg | Hematic levels in the healthy volunteer ([6]; 0.30 hours, 18 min): 0.27 µg/mL | Hematic levels in the healthy volunteer ([6]; 1 hour, 60 min): 0.58 µg/mL | concentration at 2 h ([6]; human, blood, po, 500 mg, 2 hours): 2100 ng/mL | concentration at 3 h ([6]; human, blood, po, 500 mg, 3 hours): 1410 ng/mL | concentration at 4 h ([6]; human, blood, po, 500 mg, 4 hours): 1310 ng/mL | Partial obstruction (% incidence) [7]: 20% | Total obstruction, compact plug (% incidence) [7]: 46.66% | Total obstruction, nodular mass (% incidence) [7]: 20% | Total obstruction, pimply mass (% incidence) [7]: 6.66% | bronchial epithelium reaction [8]: the bronchial epithelium reacts through a proliferation of cells, mainly cup-shaped cells | histological appearance of obstructed bronchial tract ([8]; obstructed): the bronchial obstruction is formed by abundant mucus admixed with fibrin | Hematic levels in the rat [9]: 0.04 µg/mL | concentration at 0.3 h (in vivo): 680 ng/mL | concentration at 1 h (in vivo): 1740 ng/mL | concentration at 2 h (in vivo): 2490 ng/mL | concentration at 3 h (in vivo): 1490 ng/mL | concentration at 4 h (in vivo): 610 ng/mL | concentration at 5 h (in vivo): 370 ng/mL
